Values of other authors, collected in PMC10026531 (Clinical Pharmacology in Drug Development, 2022).

Conditions: in vivo, po

- share of the parent drug exposure in plasma: 40%
Structure (SMILES): O=c1ccc2ccc(OCCCCN3CCN(c4cccc(Cl)c4Cl)CC3)cc2[nH]1 [dehydro‐aripiprazole]
